Experiment in all cases: growth of human tumour cells (NCI), 48 h
Experiment [1] relates to COLO 205 colon.
Experiment [2] relates to CCRF-CEM leukemia.
The test system of experiment [3] is TK-10 renal.
Experiment [4] relates to UO-31 renal.
The test system of experiment [5] is UACC-257 melanoma.
Experiment [6] concerns RXF 393 renal.
For experiment [7], the system named is A498 renal.

Each structure is given as a SMILES string.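 In this assay, cells in 96-well plates receive the compound at five concentrations for 48 hours. Endpoints are linearly interpolated between the surrounding concentrations. The concentration for 50% growth inhibition is given as GI50. TGI is the concentration that stops growth completely.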

For `Cc1ccc(N=Nc2c(O)c(C(=O)O)cc3ccccc23)cc1C`, the TGI in experiment [1], in experiment [2], in experiment [3], in experiment [4], in experiment [5] and in experiment [6] was more than 100 µM in each case.
On to `CCCCCCCCCCC(C(=O)O)C1(C(=O)O)CCC(=O)O1` (centres undefined), for which the TGI in experiment [1], in experiment [2], in experiment [3], in experiment [4], in experiment [5] and in experiment [6] was more than 100 µM in each case.
For the molecule `COc1ccc2c(c1)/C(=C\c1c(C)nc3sccn13)C(=O)N2`, the GI50 in experiment [7] was less than 0.01 µM; in experiment [1], less than 0.0506 µM; in experiment [2] it was 0.0979 µM; in experiment [4], 0.0147 µM; in experiment [6] it was 0.722 µM. The TGI in experiment [7] is 0.0646 µM; in experiment [2], more than 100 µM; in experiment [3], more than 63.5 µM; in experiment [4], 20.3 µM; in experiment [6], more than 90.4 µM.
On to `Oc1cccc2ccc(N/N=C/c3cc(CN4CCCCC4)c(O)c4ncccc34)nc12`, for which the GI50 in experiment [7] was 0.433 µM; in experiment [1], 0.0651 µM; in experiment [2] it was 0.0558 µM; in experiment [3] it was 0.0527 µM; in experiment [4], 0.0292 µM; in experiment [5], 0.256 µM. Also, the TGI in experiment [7] is 14.1 µM; in experiment [1], 1.36 µM; in experiment [2], 10.8 µM; in experiment [3], 11 µM; in experiment [4] it was 1.71 µM; in experiment [5], 1.04 µM.
Turning to `COc1ccc(/C=C(/C#N)C(N)=O)cc1OC`, the TGI in experiment [7], in experiment [1], in experiment [2], in experiment [3], in experiment [5] and in experiment [6] was more than 100 µM each time.
Consider `O=C(O)/C=C\C(=O)N1C/C(=C\c2ccccc2Cl)C(=O)/C(=C/c2ccccc2Cl)C1`, for which the GI50 was 2.27 µM in experiment [1]; 1.43 µM in experiment [2]; 4.47 µM in experiment [3]; 1.98 µM in experiment [4]; 6.44 µM in experiment [5]; 1.84 µM in experiment [6]. The TGI was 4.33 µM in experiment [1]; 6.66 µM in experiment [2]; 12.3 µM in experiment [3]; 3.72 µM in experiment [4]; 20.4 µM in experiment [5]; 3.36 µM in experiment [6].
With `COc1ccc(-c2ccc(/C=N/n3c(COc4ccc(Cl)cc4Cl)nn(CN4CCOCC4)c3=S)o2)c([N+](=O)[O-])c1`, the GI50 is 30.8 µM in experiment [1]; 16.2 µM in experiment [2]; 14.1 µM in experiment [3]; 42.7 µM in experiment [4]; 24.3 µM in experiment [6]. For the same molecule, the TGI was more than 100 µM in experiment [1]; 43.8 µM in experiment [2]; 49.2 µM in experiment [3]; more than 100 µM in experiment [4]; 88.9 µM in experiment [6].
As for `CCCCCCCCN=C(N)c1ccc(N2CCN(c3ccc(C(N)=NCCCCCCCC)cc3)CC2)cc1`, the GI50 in experiment [1] was 1.49 µM; in experiment [3] it was 1.72 µM; in experiment [4], 4.22 µM; in experiment [5] it was 4.03 µM; in experiment [6], 1.13 µM. In addition, the TGI is 19.2 µM in experiment [1]; 8.92 µM in experiment [3]; more than 50 µM in experiment [4]; 13.2 µM in experiment [5]; 4.49 µM in experiment [6].
Regarding `COc1ccc(-c2n/c(=C\c3c(O)[nH]c4ccc(OC)cc34)cc3c2=Nc2ccccc2-3)cc1`, the GI50 was 11.6 µM in experiment [7]; 10.7 µM in experiment [1]; 2.09 µM in experiment [3]; 18 µM in experiment [4]; 2.07 µM in experiment [5]. The TGI in experiment [7] amounted to 25.4 µM; in experiment [1] it was 56.8 µM; in experiment [3], 3.87 µM; in experiment [4], 56.1 µM; in experiment [5], 4.48 µM.
On to `CCCCC(CC)CN=C(N)NC(N)=NCCCCCCN=C(N)NC(N)=NCC(CC)CCCC` (centres undefined), for which the GI50 was 1.82 µM in experiment [1]; 4.03 µM in experiment [3]; 3.03 µM in experiment [4]; 2.62 µM in experiment [5]; 2.27 µM in experiment [6]. Further, the TGI in experiment [1] was 3.31 µM; in experiment [3] it was more than 100 µM; in experiment [4] it was 10.1 µM; in experiment [5], 8.73 µM; in experiment [6], 6.43 µM.
Regarding `CCOC(=O)c1c2c(n3ccccc13)C(=O)c1ccccc1C2=O`, the TGI in experiment [7], in experiment [1], in experiment [3], in experiment [4], in experiment [5] and in experiment [6] was more than 100 µM in each case.
Consider `COc1ccc(OC)c(/C=C2\SC(=S)NC2=O)c1`, for which the GI50 in experiment [1] is 48.3 µM; in experiment [2], 42.4 µM; in experiment [3], 28.8 µM; in experiment [4], 33.6 µM; in experiment [5], 19.8 µM; in experiment [6], 18.4 µM. In addition, the TGI in experiment [1] is more than 100 µM; in experiment [2], more than 100 µM; in experiment [3], more than 100 µM; in experiment [4], more than 100 µM; in experiment [5], 61.5 µM; in experiment [6], 64.8 µM.
On to `COc1cc2c(c(OC)c1)C1c3ccccc3NC(=O)N1CC2` (centres undefined), for which the GI50 in experiment [1] was 2.82 µM; in experiment [2], 2.67 µM; in experiment [3], 8.98 µM; in experiment [4], 2.81 µM; in experiment [5] it was 51 µM; in experiment [6], 2.38 µM. For the same molecule, the TGI in experiment [1] is 8.25 µM; in experiment [2], more than 100 µM; in experiment [3], more than 100 µM; in experiment [4], 85.4 µM; in experiment [5], more than 100 µM; in experiment [6], 5.6 µM.
In the case of `COc1ccc(-c2csc(N(C(=O)N3CCN(c4cc5c(cc4F)c(=O)c(C(=O)O)cn5C4CC4)CC3)c3ccccc3)n2)cc1`, the GI50 in experiment [7] is 1.34 µM; in experiment [1], 3 µM; in experiment [2], 3.06 µM; in experiment [3], 1.7 µM; in experiment [5] it was 2.35 µM; in experiment [6], 0.789 µM. The TGI is 6.42 µM in experiment [7]; 9.22 µM in experiment [1]; more than 100 µM in experiment [2]; 39.9 µM in experiment [3]; 6.71 µM in experiment [5]; 14.8 µM in experiment [6].
Take `Nc1ccccc1C#C/C=C\C#Cc1cccs1`: the GI50 is 18.2 µM in experiment [1]; 0.295 µM in experiment [2]; 17.3 µM in experiment [3]; 8.77 µM in experiment [4]; 23.2 µM in experiment [5]; 33.8 µM in experiment [6]. Besides, the TGI is 78.3 µM in experiment [1]; 2.2 µM in experiment [2]; 39.8 µM in experiment [3]; more than 43.5 µM in experiment [4]; more than 57.8 µM in experiment [5]; more than 83.9 µM in experiment [6].
Take `COC(=O)[C@@]1(C)CC[C@]2(C)CC[C@]3(C)C4=CC=C5C(=CC(=O)C(O)=C5C)[C@]4(C)[C@@H](O)C[C@@]3(C)[C@@H]2C1`: the GI50 in experiment [1] is 7.36 µM; in experiment [2], 2.73 µM; in experiment [3], 4.77 µM; in experiment [4] it was 5.8 µM; in experiment [5], 10.1 µM; in experiment [6] it was 11.3 µM. For the same molecule, the TGI was determined as 22.2 µM in experiment [1]; 11.9 µM in experiment [2]; 15.7 µM in experiment [3]; 16.2 µM in experiment [4]; 24.3 µM in experiment [5]; 22.9 µM in experiment [6].
Turning to `COc1cc(/C=C/c2cc(O)c3cc(C(C)=O)c(=O)oc3c2)cc2c1O[C@]1(C)CC[C@@H](O)C(C)(C)[C@H]1C2`, the TGI in experiment [7] is more than 28.2 µM; in experiment [1], more than 59.8 µM; in experiment [2] it was more than 29.4 µM; in experiment [3] it was more than 77.7 µM; in experiment [4] it was more than 26.2 µM; in experiment [5], more than 30.5 µM. Further, the GI50 in experiment [1] was more than 27.5 µM; in experiment [3] it was more than 42.7 µM.
Turning to `N#Cc1c(N2CCCC2)[nH]c(=O)c(C(c2c(Cl)cccc2Cl)c2c(O)c(C#N)c(N3CCCC3)[nH]c2=O)c1O`, the GI50 in experiment [1] was 5.11 µM; in experiment [2], 1.91 µM; in experiment [3], 12.4 µM; in experiment [4] it was 16.1 µM; in experiment [5] it was 12.4 µM; in experiment [6], 2.69 µM. The TGI is 17.4 µM in experiment [1]; 5.06 µM in experiment [2]; 29.6 µM in experiment [3]; 35.9 µM in experiment [4]; 26.7 µM in experiment [5]; 15.4 µM in experiment [6].
As to `C[C@@H]1C[C@H]2CC[C@H](O2)[C@H](C)C(=O)O[C@@H](C)C[C@@H]2CC[C@@H](O2)[C@@H](C)C(=O)O[C@H](C)C[C@H]2CC[C@H](O2)[C@H](C)C(=O)O[C@@H](C)C[C@@H]2CC[C@@H](O2)[C@@H](C)C(=O)O1`, the TGI is more than 19.7 µM in experiment [7]; 0.33 µM in experiment [1]; 16.2 µM in experiment [2]; more than 48.5 µM in experiment [3]; 0.806 µM in experiment [5]; more than 100 µM in experiment [6].

The values are drawn from PubChem BioAssay (NCI).
